{
  "source": "patent US8008540B2",
  "about": "“Transgenic non-human animal for use in research models for studying Parkinson's disease” (Kampavata AB, priority 2004, dated 2011)",
  "tested_on": "homozygous knockout mice (+/DAT-cre; Tfam^loxP/Tfam^loxP)",
  "assay": "L-DOPA treatment, open field activity cages (locomotion and rearing)",
  "format": "in vivo, mouse",
  "protocol": "Open field activity was examined in automated activity cages. This consisted of Plexiglas boxes (35×35×18 cm) with a lower and a higher row of infrared sensitive photocells and a microcomputer registering interruption of photocell beams. Animals were tested during the light phase of the light-dark cycle, between 9:00 and 13:00 h. Locomotor activity was registered when animals interrupted the lower row of photocells and rearing was registered when the higher row was interrupted. Animals were individually placed gently in the open field arena and remained there during 60 min. Locomotion and rearing counts were registered every 10 min. For the L-DOPA treatment, spontaneous locomotion and rearing were measured in activity cages as above. Animals were then given i.p. injections of L-DOPA combined with the peripheral dopa decarboxylase inhibitor benzerazide (Madopark 20 mg/kg in PBS; Roche) or PBS and were then immediately put back into the activity cages for another 60 minutes of recording. The scoring of counts was given as mean+/−SEM. Statistical significance was tested using 2-way ANOVA analysis. The open field box was cleaned with 70% alcohol after each test.",
  "key": {"[1]": {"conditions": "20 and 30 week old homozygous knockout mice, L-DOPA 20 mg/kg i.p. vs saline, 60 min recording"}},
  "note": "Entries after “also recorded” stand apart in the source; their conditions may differ.",
  "data": [
    {"smiles": "N[C@@H](Cc1ccc(O)c(O)c1)C(=O)O", "note": "[L-DOPA]", "values": [
      {"measurement": "motor performance", "setting": "20 and 30 week old homozygous knockout mice", "value": "improved motor performance"},
      {"measurement": "locomotion", "setting": "[1]", "value": "increased locomotion"},
      {"measurement": "rearing", "setting": "[1]", "value": "increase in rearing was similar; also recorded: increase of rearing"},
      {"measurement": "progressive movement disorder", "setting": "Parkinson mouse model, L-DOPA treatment", "value": "partially reversed"},
      {"measurement": "locomotor response, course over time", "setting": "older (30 week old) homozygous knockout mice", "value": "abruptly terminated"},
      {"measurement": "locomotion response, younger vs older mice", "setting": "younger (20 week old) homozygous knockout mice, identical L-DOPA dose", "value": "more pronounced and longer lasting locomotion response; also recorded: greater locomotion response"}
    ]}
  ]
}
